Assay results from US9060989B2, “Method for treating or relieving inflammatory bowel disease” (INDUSTRIAL TECHNOLOGY RESEARCH INSTITUTE, priority 2010, dated 2015).

Tested on: enteritis induced by trinitrobenzene sulfonic acid (TNBS)
Assay: Improvement of bowel swelling and mushy or watery feces in TNBS-induced enteritis
Format: in vivo
Details: TNBS-induced enteritis mice, oral; extracts 100 mg/kg (B. krylovianum also 1000 mg/kg), 5-ASA 200 mg/kg; 6 cm bowel from the anus observed
Source text: The animal model of enteritis for test is from an induction by trinitrobenzene sulfonic acid (TNBS) (Current Protocols in Immunology (2001) 15.19.1-15.19.14; Lahat G, Halperin D, Fabian I, et al. Immunomodulatory Effects of Ciprofloxacin in TNBS-Induced Colitis in Mice. Inflamm Bowel Dis 2007;13:557-565; ten Hove T, van den Blink B, Pronk I, et al. Dichotomal role of inhibition of p38 MAPK with SB 203580 in experimental colitis. Gut 2002; 50:507-512; and Bouma G, Strober W. The Immunological and Genetic Basis of Inflammatory Bowel Disease. Nature Review Immunology 2003; 3: 521-533). The bowel in the animal model of enteritis has swelled and the feces therein show a mushy or watery appearance instead of a normal semi-solid type appearance.
Specifically, BABL/cAnNCrlBltw mice, purchased from BioLASCO Taiwan (Bltw) were grouped into four groups having 6 mice to a group. In three of the groups, each mouse was injected with 1.75 mg of trinitrobenzene sulfonic acid (TNBS) (Sigma) at a 4 cm depth of the bowel from the anus. After 48 hours, the injected location was induced to form enteritis. Mice in another group were injected with a 50% ethanol aqueous solution without TNBS at a 4 cm depth of the bowel from the anus as a negative control (A). The location injected ethanol aqueous solution without TNBS was not induced to form enteritis. […]

In the case of `Nc1ccc(O)c(C(=O)O)c1` [5-ASA, 5-aminosalicylic acid], the bowel swelling is reported as “not alleviated or eliminated”.
